Like-named read-outs stand apart in the source and are kept apart here. Numbered stars: 1 amine (or outer) side, 2 acyl side, 3 side chain; on linkers, the order of the positions; unused ones are H or OH. Square brackets hold non-standard residues; d marks the D form. Side chains are listed from the residue outwards. Peptide text beside a SMILES is read from it. * marks the point of attachment. C20 diacid = O=C(O)CCCCCCCCCCCCCCCCCCC(=O)*; γGlu = O=C(O)[C@H](CCC(=O)[*:2])N[*:1]; AEEA = NCCOCCOCC(=O)O; Aib = CC(C)(N)C(=O)O
Key:
[1] = molecular target: SCTR (Homo sapiens, UniProt P47872); assay: hSCTR potency, cAMP accumulation in CHO-K1 cells stably overexpressing hSCTR; format: cell-based; design: alternatively Euroscreen ES-712-AF; FAST-0161L; host or cells: CHO-K1; conditions: cAMP accumulation, CHO-K1 cells overexpressing hSCTR
Procedure, shortened: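 EC50 derived from variable-slope nonlinear regression on 11-point, 3-fold series run in duplicate (crude peptides: 5 points, 10-fold, n=1). Compound stimulation lasted 30 min at room temperature in casein/IBMX-containing DPBS (0.05%, 0.5 mM), 2000 cells/well; cAMP detected by time-resolved FRET after one hour.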

[2] = Fibril formation of crude library peptides (Thioflavin T); format: physicochemical; design: key: average ThT fluorescence emission at 480 nm (ex 450 nm), raw units; conditions: Physical stability of peptides
Procedure, shortened: (§1)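 Turbidity is the absorbance at 600 nm, taken before heating. Fibril signal is the mean ThT emission at 480 nm (450 nm excitation), read every 10 min over 72 h at 40° C with 700 rpm shaking between reads. Peptides at 267 μM, pH 4.0 acetate or pH 7.0 phosphate buffer (50 mM), 4 μM ThT final.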

[3] = Turbidity of crude library peptides (absorbance at 600 nm); format: physicochemical; conditions: Physical stability of peptides
Procedure, shortened: as §1

[4] = molecular target: GLP1R (Homo sapiens, UniProt P43220); assay: hGLP1R potency, cAMP accumulation in CHO-K1 cells stably overexpressing hGLP1R; format: cell-based; design: host or cells: CHO-K1; conditions: for Selectivity: SCTR EC50/GLP1R EC50 ratio; for EC50: cAMP accumulation, CHO-K1 cells overexpressing hGLP1R; for SCTR EC50/GLP1R EC50 ratio: selectivity for hGLP1R over hSCTR, cAMP accumulation in CHO-K1 cells
Procedure, shortened: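 EC50 derives from variable-slope nonlinear regression of cAMP HTRF signal, with purified peptides tested as 11 three-fold dilutions in duplicate. Assay: hGLP1R-overexpressing CHO-K1 cells, 0.5 mM IBMX, 0.05% casein in DPBS, 30 min room-temperature stimulation, GLP-1(7-36) as reference agonist.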

[5] = read-out: pEC50 hSCTR (converted)
[6] = read-out: pEC50 hGLPR1 (converted)
[7] = read-out: hSCTR pEC50 (converted)
[8] = read-out: hGLP1R pEC50 (converted)

Sequence of GLP1R (P43220 24-463): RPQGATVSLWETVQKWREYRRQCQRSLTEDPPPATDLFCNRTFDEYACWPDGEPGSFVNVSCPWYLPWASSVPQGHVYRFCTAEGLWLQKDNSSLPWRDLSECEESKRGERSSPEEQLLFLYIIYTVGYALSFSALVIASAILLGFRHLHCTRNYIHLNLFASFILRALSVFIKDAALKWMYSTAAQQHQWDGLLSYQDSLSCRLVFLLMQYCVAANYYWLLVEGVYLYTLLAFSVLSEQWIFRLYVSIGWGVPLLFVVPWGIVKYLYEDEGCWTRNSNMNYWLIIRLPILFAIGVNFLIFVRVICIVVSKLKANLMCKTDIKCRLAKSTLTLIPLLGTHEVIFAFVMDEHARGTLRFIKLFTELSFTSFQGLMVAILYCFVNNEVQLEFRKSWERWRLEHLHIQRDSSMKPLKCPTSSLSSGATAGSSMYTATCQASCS
Sequence of SCTR (P47872 23-440): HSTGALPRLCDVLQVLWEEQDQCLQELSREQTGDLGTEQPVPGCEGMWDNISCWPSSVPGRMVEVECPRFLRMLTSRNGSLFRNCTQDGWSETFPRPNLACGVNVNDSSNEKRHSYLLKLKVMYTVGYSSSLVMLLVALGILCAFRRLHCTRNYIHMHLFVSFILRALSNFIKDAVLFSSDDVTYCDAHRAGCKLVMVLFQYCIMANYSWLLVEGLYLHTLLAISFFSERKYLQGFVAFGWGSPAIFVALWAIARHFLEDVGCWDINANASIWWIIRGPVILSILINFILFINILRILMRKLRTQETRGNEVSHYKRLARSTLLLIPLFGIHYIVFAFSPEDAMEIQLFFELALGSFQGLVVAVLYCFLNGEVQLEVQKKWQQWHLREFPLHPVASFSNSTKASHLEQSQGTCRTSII

| EC50 [1, 5] | Fibril formation [2] | Turbidity (pH 7) [3] | Selectivity [4] | EC50 [4, 6] | EC50 [1, 7] | EC50 [4, 8] | SCTR EC50/GLP1R EC50 ratio [4] | SMILES |
| --- | --- | --- | --- | --- | --- | --- | --- | --- |
| 3980 nM | 16732 | 0.08 | 67329 | 0.0501 nM |  |  |  | CC(C)C[C@H](NC(=O)[C@H](Cc1ccccc1)NC(=O)[C@H](CCCNC(=N)N)NC(=O)[C@H](CCC(N)=O)NC(=O)C(C)(C)NC(=O)[C@H](C)NC(=O)[C@H](C)NC(=O)[C@H](Cc1ccccc1)NC(=O)[C@H](CCC(=O)O)NC(=O)[C@H](CCCCNC(=O)COCCOCCNC(=O)COCCOCCNC(=O)CC[C@H](NC(=O)CCCCCCCCCCCCCCCCCCC(=O)O)C(=O)O)NC(=O)[C@H](CC(C)C)NC(=O)[C@H](Cc1ccc(O)cc1)NC(=O)[C@H](CO)NC(=O)[C@@H](NC(=O)[C@H](CC(=O)O)NC(=O)[C@H](CO)NC(=O)[C@@H](NC(=O)[C@H](Cc1ccccc1)NC(=O)[C@@H](NC(=O)CNC(=O)[C@H](CCC(=O)O)NC(=O)C(C)(C)NC(=O)[C@@H](N)Cc1c[nH]cn1)[C@@H](C)O)[C@@H](C)O)C(C)C)C(=O)N[C@@H](CCC(=O)O)C(=O)N[C@@H](Cc1c[nH]cn1)C(=O)N[C@@H](CC(C)C)C(=O)N[C@H](C(N)=O)C(C)C [compound 46] (H-H[Aib]EGTFTSDVSYLK([AEEA-AEEA-γGlu-C20 diacid])EFAA[Aib]QRFLEHLV-NH2) |
|  | 8019 | 0.09 |  |  | 398 nM | 0.0126 nM | 31579 | CC(C)C[C@H](NC(=O)[C@H](Cc1ccccc1)NC(=O)[C@H](CCCNC(=N)N)NC(=O)[C@H](CCC(N)=O)NC(=O)[C@H](C)NC(=O)[C@H](C)NC(=O)[C@H](C)NC(=O)[C@H](CCC(=O)O)NC(=O)[C@H](CCC(=O)O)NC(=O)[C@H](CCCCNC(=O)COCCOCCNC(=O)COCCOCCNC(=O)CC[C@H](NC(=O)CCCCCCCCCCCCCCCCCCC(=O)O)C(=O)O)NC(=O)[C@H](CC(C)C)NC(=O)[C@@H](NC(=O)[C@H](CO)NC(=O)[C@@H](NC(=O)[C@H](CC(=O)O)NC(=O)[C@H](CO)NC(=O)[C@@H](NC(=O)[C@H](Cc1ccccc1)NC(=O)[C@@H](NC(=O)CNC(=O)[C@H](CCC(=O)O)NC(=O)C(C)(C)NC(=O)[C@@H](N)Cc1c[nH]cn1)[C@@H](C)O)[C@@H](C)O)C(C)C)[C@@H](C)O)C(=O)N[C@@H](CCC(=O)O)C(=O)N[C@@H](Cc1c[nH]cn1)C(=O)N[C@@H](CC(C)C)C(=O)N[C@H](C(N)=O)C(C)C [compound 96] (H-H[Aib]EGTFTSDVSTLK([AEEA-AEEA-γGlu-C20 diacid])EEAAAQRFLEHLV-NH2) |
| 501 nM | 6765 | 0.08 | 2365 | 0.2 nM |  |  |  | CC(C)C[C@H](NC(=O)[C@H](CCC(=O)O)NC(=O)[C@H](CCCCNC(=O)COCCOCCNC(=O)COCCOCCNC(=O)CC[C@H](NC(=O)CCCCCCCCCCCCCCCCCCC(=O)O)C(=O)O)NC(=O)[C@H](CC(C)C)NC(=O)[C@H](CCCNC(=N)N)NC(=O)[C@H](CO)NC(=O)[C@@H](NC(=O)[C@H](CC(=O)O)NC(=O)[C@H](CO)NC(=O)[C@@H](NC(=O)[C@H](Cc1ccccc1)NC(=O)[C@@H](NC(=O)CNC(=O)[C@H](CCC(=O)O)NC(=O)C(C)(C)NC(=O)[C@@H](N)Cc1c[nH]cn1)[C@@H](C)O)[C@@H](C)O)C(C)C)C(=O)N[C@@H](C)C(=O)N[C@@H](C)C(=O)NC(C)(C)C(=O)N[C@@H](CCC(N)=O)C(=O)N[C@@H](CCCNC(=N)N)C(=O)N[C@@H](Cc1ccccc1)C(=O)N[C@@H](CC(C)C)C(=O)N[C@@H](CCC(=O)O)C(=O)N[C@@H](Cc1c[nH]cn1)C(=O)N[C@@H](CC(C)C)C(=O)N[C@H](C(N)=O)C(C)C [compound 10] (H-H[Aib]EGTFTSDVSRLK([AEEA-AEEA-γGlu-C20 diacid])ELAA[Aib]QRFLEHLV-NH2) |
| 15800 nM | 14799 | 0.08 | 1030149 | 0.0158 nM |  |  |  | CC(C)C[C@H](NC(=O)[C@H](Cc1ccccc1)NC(=O)[C@H](CCCNC(=N)N)NC(=O)[C@H](CCC(N)=O)NC(=O)[C@H](CCC(=O)O)NC(=O)[C@H](C)NC(=O)[C@H](C)NC(=O)[C@@H](NC(=O)[C@H](CCC(=O)O)NC(=O)[C@H](CCCCNC(=O)COCCOCCNC(=O)COCCOCCNC(=O)CC[C@H](NC(=O)CCCCCCCCCCCCCCCCCCC(=O)O)C(=O)O)NC(=O)[C@H](CC(C)C)NC(=O)[C@H](Cc1ccc(O)cc1)NC(=O)[C@H](CO)NC(=O)[C@@H](NC(=O)[C@H](CC(=O)O)NC(=O)[C@H](CO)NC(=O)[C@@H](NC(=O)[C@H](Cc1ccccc1)NC(=O)[C@@H](NC(=O)CNC(=O)[C@H](CCC(=O)O)NC(=O)C(C)(C)NC(=O)[C@@H](N)Cc1c[nH]cn1)[C@@H](C)O)[C@@H](C)O)C(C)C)[C@@H](C)O)C(=O)N[C@@H](CCC(=O)O)C(=O)N[C@@H](Cc1c[nH]cn1)C(=O)N[C@@H](CC(C)C)C(=O)N[C@H](C(N)=O)C(C)C [compound 69] (H-H[Aib]EGTFTSDVSYLK([AEEA-AEEA-γGlu-C20 diacid])ETAAEQRFLEHLV-NH2) |
| 316 nM | 9625 | 0.09 | 11143 | 0.0316 nM |  |  |  | CC(C)C[C@H](NC(=O)[C@H](CCC(=O)O)NC(=O)[C@H](CCCCNC(=O)COCCOCCNC(=O)COCCOCCNC(=O)CC[C@H](NC(=O)CCCCCCCCCCCCCCCCCCC(=O)O)C(=O)O)NC(=O)[C@H](CC(C)C)NC(=O)[C@H](CCC(=O)O)NC(=O)[C@H](CO)NC(=O)[C@@H](NC(=O)[C@H](CC(=O)O)NC(=O)[C@H](CO)NC(=O)[C@@H](NC(=O)[C@H](Cc1ccccc1)NC(=O)[C@@H](NC(=O)CNC(=O)[C@H](CCC(=O)O)NC(=O)C(C)(C)NC(=O)[C@@H](N)Cc1c[nH]cn1)[C@@H](C)O)[C@@H](C)O)C(C)C)C(=O)N[C@@H](C)C(=O)N[C@@H](C)C(=O)N[C@@H](CCC(=O)O)C(=O)N[C@@H](CCC(N)=O)C(=O)N[C@@H](CCCNC(=N)N)C(=O)N[C@@H](Cc1ccccc1)C(=O)N[C@@H](CC(C)C)C(=O)N[C@@H](CCC(=O)O)C(=O)N[C@@H](Cc1c[nH]cn1)C(=O)N[C@@H](CC(C)C)C(=O)N[C@H](C(N)=O)C(C)C [compound 36] (H-H[Aib]EGTFTSDVSELK([AEEA-AEEA-γGlu-C20 diacid])ELAAEQRFLEHLV-NH2) |
|  | 2928 | 0.08 |  |  | 63.1 nM | 0.0158 nM | 4094 | CC(C)C[C@H](NC(=O)[C@H](C)NC(=O)[C@H](CO)NC(=O)[C@@H](NC(=O)[C@H](CC(=O)O)NC(=O)[C@H](CO)NC(=O)[C@@H](NC(=O)[C@H](Cc1ccccc1)NC(=O)[C@@H](NC(=O)CNC(=O)[C@H](CCC(=O)O)NC(=O)C(C)(C)NC(=O)[C@@H](N)Cc1c[nH]cn1)[C@@H](C)O)[C@@H](C)O)C(C)C)C(=O)N[C@@H](CCCCNC(=O)COCCOCCNC(=O)COCCOCCNC(=O)CC[C@H](NC(=O)CCCCCCCCCCCCCCCCCCC(=O)O)C(=O)O)C(=O)N[C@@H](CCC(=O)O)C(=O)N[C@@H](CCC(=O)O)C(=O)N[C@@H](C)C(=O)NC(C)(C)C(=O)N[C@@H](CC(C)C)C(=O)N[C@@H](CCC(N)=O)C(=O)N[C@@H](CCCNC(=N)N)C(=O)N[C@@H](Cc1ccccc1)C(=O)N[C@@H](CC(C)C)C(=O)N[C@@H](CCC(=O)O)C(=O)N[C@@H](Cc1c[nH]cn1)C(=O)N[C@@H](CC(C)C)C(=O)N[C@H](C(N)=O)C(C)C [compound 148] (H-H[Aib]EGTFTSDVSALK([AEEA-AEEA-γGlu-C20 diacid])EEA[Aib]LQRFLEHLV-NH2) |
| 794 nM | 9138 | 0.09 | 66252 | 0.0126 nM |  |  |  | CC(C)C[C@H](NC(=O)[C@H](Cc1ccccc1)NC(=O)[C@H](CCCNC(=N)N)NC(=O)[C@H](CCC(N)=O)NC(=O)[C@H](C)NC(=O)[C@H](C)NC(=O)[C@H](C)NC(=O)[C@H](CCC(=O)O)NC(=O)[C@H](CCC(=O)O)NC(=O)[C@H](CCCCNC(=O)COCCOCCNC(=O)COCCOCCNC(=O)CC[C@H](NC(=O)CCCCCCCCCCCCCCCCCCC(=O)O)C(=O)O)NC(=O)[C@H](CC(C)C)NC(=O)[C@H](Cc1ccc(O)cc1)NC(=O)[C@H](CO)NC(=O)[C@@H](NC(=O)[C@H](CC(=O)O)NC(=O)[C@H](CO)NC(=O)[C@@H](NC(=O)[C@H](Cc1ccccc1)NC(=O)[C@@H](NC(=O)CNC(=O)[C@H](CCC(=O)O)NC(=O)C(C)(C)NC(=O)[C@@H](N)Cc1c[nH]cn1)[C@@H](C)O)[C@@H](C)O)C(C)C)C(=O)N[C@@H](CCC(=O)O)C(=O)N[C@@H](Cc1c[nH]cn1)C(=O)N[C@@H](CC(C)C)C(=O)N[C@H](C(N)=O)C(C)C [compound 61] (H-H[Aib]EGTFTSDVSYLK([AEEA-AEEA-γGlu-C20 diacid])EEAAAQRFLEHLV-NH2) |

Reference: patent US20260201008A1, “SECRETIN-DERIVED GLP1R SELECTIVE AGONISTS” (GUBRA A/S, priority 2023, published 2026)
